# Reference: ChEMBL document CHEMBL3885881, “DrugMatrix”
# Legend:
# Rattus norvegicus [1] = species on record: Rattus norvegicus; assay: DrugMatrix - Regimen: Daily Repeat; type: toxicity, organism-based, Sprague-Dawley; set-up: regimen Daily Repeat, gender Male, age 6-8 weeks; conditions: in vivo, po, […], route oral GAVAGE, time 14 day, vehicle 100 % WATER
# Rattus norvegicus [2] = species on record: Rattus norvegicus; type: toxicity, organism-based, Sprague-Dawley; conditions: in vivo, po, 24 h, route oral GAVAGE, time 1 day, vehicle 100 % WATER
# Description: DrugMatrix - Regimen: Single
# [3] = 0 mg/kg, tissue Blood, dose level Control
# [4] = 0 mg/kg, tissue Plasma, dose level Control
# [5] = tissue Blood, dose 2.5 mg/Kg, dose level High
# [6] = tissue Plasma, dose 2.5 mg/Kg, dose level High
# [7] = 0 mg/kg, vehicle control, tissue Blood, dose level Control
# [8] = 0 mg/kg, vehicle control, tissue Plasma, dose level Control
# [9] = […], tissue Blood, dose 2.5 mg/Kg, dose level High
# [10] = […], tissue Plasma, dose 2.5 mg/Kg, dose level High
sequence,measurement,setting,value
MERCURIC CHLORIDE,ABSOLUTE BASOPHIL,Rattus norvegicus [1]; [3],0 CELLS/uL
same,ABSOLUTE EOSINOPHIL,Rattus norvegicus [1]; [3],117.17 CELLS/uL
same,ABSOLUTE MONOCYTE,Rattus norvegicus [1]; [3],419 CELLS/uL
same,ABSOLUTE SEGMENTED NEUTROPHIL,Rattus norvegicus [1]; [3],2139.67 CELLS/uL
same,BASOPHIL,Rattus norvegicus [1]; [3],0%
same,EOSINOPHIL,Rattus norvegicus [1]; [3],0.67%
same,ERYTHROCYTE COUNT,Rattus norvegicus [1]; [3],6.61 x10E6/uL
same,HEMATOCRIT,Rattus norvegicus [1]; [3],37.58%
same,HEMOGLOBIN,Rattus norvegicus [1]; [3],13.8 G/DL
same,LEUKOCYTE COUNT,Rattus norvegicus [1]; [3],15.45 x10E3/uL
same,LYMPHOCYTE,Rattus norvegicus [1]; [3],83%
same,MEAN CORPUSCULAR HEMOGLOBIN,Rattus norvegicus [1]; [3],20.87 pg
same,MEAN CORPUSCULAR HEMOGLOBIN CONCENTRATION,Rattus norvegicus [1]; [3],36.72 G/DL
same,MEAN CORPUSCULAR VOLUME,Rattus norvegicus [1]; [3],56.85 fL
same,MONOCYTE,Rattus norvegicus [1]; [3],2.67%
same,NEUTROPHIL,Rattus norvegicus [1]; [3],13.67%
same,NUCLEATED RED BLOOD CELLS,Rattus norvegicus [1]; [3],0 /100WBC
same,PLATELET COUNT,Rattus norvegicus [1]; [3],1108.33 x10E3/uL
same,ALANINE AMINOTRANSFERASE,Rattus norvegicus [1]; [4],56.83 u/L
same,ALKALINE PHOSPHATASE,Rattus norvegicus [1]; [4],354.33 u/L
same,ASPARTATE AMINOTRANSFERASE,Rattus norvegicus [1]; [4],93.33 u/L
same,BLOOD UREA NITROGEN,Rattus norvegicus [1]; [4],16.67 mg/dL
same,CARBON DIOXIDE,Rattus norvegicus [1]; [4],27.83 mmol/L
same,CHOLESTEROL,Rattus norvegicus [1]; [4],62.33 mg/dL
same,CREATININE,Rattus norvegicus [1]; [4],0.2 mg/dL
same,GLUCOSE,Rattus norvegicus [1]; [4],137 mg/dL
same,LACTATE DEHYDROGENASE,Rattus norvegicus [1]; [4],407 u/L
same,LIPASE,Rattus norvegicus [1]; [4],10.83 u/L
same,PHOSPHORUS,Rattus norvegicus [1]; [4],11.45 mg/dL
same,POTASSIUM,Rattus norvegicus [1]; [4],6.51 MEQ/L
same,SODIUM,Rattus norvegicus [1]; [4],145.57 MEQ/L
same,TOTAL BILIRUBIN,Rattus norvegicus [1]; [4],0.2 mg/dL
same,TOTAL PROTEIN,Rattus norvegicus [1]; [4],6.3 G/DL
same,ABSOLUTE BASOPHIL,Rattus norvegicus [1]; [5],0 CELLS/uL
same,ABSOLUTE EOSINOPHIL,Rattus norvegicus [1]; [5],269 CELLS/uL
same,ABSOLUTE LYMPHOCYTE,Rattus norvegicus [1]; [5],14982 CELLS/uL
same,ABSOLUTE MONOCYTE,Rattus norvegicus [1]; [5],560.2 CELLS/uL
same,ABSOLUTE SEGMENTED NEUTROPHIL,Rattus norvegicus [1]; [5],2068.8 CELLS/uL
same,BASOPHIL,Rattus norvegicus [1]; [5],0%
same,EOSINOPHIL,Rattus norvegicus [1]; [5],1.6%
same,ERYTHROCYTE COUNT,Rattus norvegicus [1]; [5],6.64 x10E6/uL
same,HEMATOCRIT,Rattus norvegicus [1]; [5],37.88%
same,LEUKOCYTE COUNT,Rattus norvegicus [1]; [5],17.88 x10E3/uL
same,LYMPHOCYTE,Rattus norvegicus [1]; [5],83.6%
same,MEAN CORPUSCULAR HEMOGLOBIN,Rattus norvegicus [1]; [5],20.94 pg
same,MEAN CORPUSCULAR HEMOGLOBIN CONCENTRATION,Rattus norvegicus [1]; [5],36.7 G/DL
same,MEAN CORPUSCULAR VOLUME,Rattus norvegicus [1]; [5],57.06 fL
same,MONOCYTE,Rattus norvegicus [1]; [5],3.2%
same,NEUTROPHIL,Rattus norvegicus [1]; [5],11.6%
same,NUCLEATED RED BLOOD CELLS,Rattus norvegicus [1]; [5],0 /100WBC
same,PLATELET COUNT,Rattus norvegicus [1]; [5],1034.6 x10E3/uL
same,ALANINE AMINOTRANSFERASE,Rattus norvegicus [1]; [6],59.6 u/L
same,ALKALINE PHOSPHATASE,Rattus norvegicus [1]; [6],375 u/L
same,ASPARTATE AMINOTRANSFERASE,Rattus norvegicus [1]; [6],95.2 u/L
same,BLOOD UREA NITROGEN,Rattus norvegicus [1]; [6],17 mg/dL
same,CARBON DIOXIDE,Rattus norvegicus [1]; [6],23.4 mmol/L
same,CHOLESTEROL,Rattus norvegicus [1]; [6],68 mg/dL
same,CREATININE,Rattus norvegicus [1]; [6],0.22 mg/dL
same,GLUCOSE,Rattus norvegicus [1]; [6],151.4 mg/dL
same,LACTATE DEHYDROGENASE,Rattus norvegicus [1]; [6],417.8 u/L
same,LIPASE,Rattus norvegicus [1]; [6],10.2 u/L
same,PHOSPHORUS,Rattus norvegicus [1]; [6],11.36 mg/dL
same,POTASSIUM,Rattus norvegicus [1]; [6],6.37 MEQ/L
same,SODIUM,Rattus norvegicus [1]; [6],147.12 MEQ/L
same,TOTAL BILIRUBIN,Rattus norvegicus [1]; [6],0.18 mg/dL
same,TOTAL PROTEIN,Rattus norvegicus [1]; [6],6.74 G/DL
same,URIC ACID,Rattus norvegicus [1]; [6],2.42 mg/dL
same,ABSOLUTE EOSINOPHIL,Rattus norvegicus [2]; [7],91.83 CELLS/uL
same,ABSOLUTE LYMPHOCYTE,Rattus norvegicus [2]; [7],13862.33 CELLS/uL
same,ABSOLUTE MONOCYTE,Rattus norvegicus [2]; [7],437.83 CELLS/uL
same,ABSOLUTE SEGMENTED NEUTROPHIL,Rattus norvegicus [2]; [7],1358 CELLS/uL
same,BASOPHIL,Rattus norvegicus [2]; [7],0%
same,EOSINOPHIL,Rattus norvegicus [2]; [7],0.5%
same,ERYTHROCYTE COUNT,Rattus norvegicus [2]; [7],5.12 x10E6/uL
same,HEMATOCRIT,Rattus norvegicus [2]; [7],31.77%
same,HEMOGLOBIN,Rattus norvegicus [2]; [7],11.8 G/DL
same,LEUKOCYTE COUNT,Rattus norvegicus [2]; [7],15.75 x10E3/uL
same,MEAN CORPUSCULAR HEMOGLOBIN,Rattus norvegicus [2]; [7],23.07 pg
same,MEAN CORPUSCULAR HEMOGLOBIN CONCENTRATION,Rattus norvegicus [2]; [7],37.17 G/DL
same,MONOCYTE,Rattus norvegicus [2]; [7],2.67%
same,NEUTROPHIL,Rattus norvegicus [2]; [7],8.5%
same,NUCLEATED RED BLOOD CELLS,Rattus norvegicus [2]; [7],0 /100WBC
same,PLATELET COUNT,Rattus norvegicus [2]; [7],1113.83 x10E3/uL
same,ALANINE AMINOTRANSFERASE,Rattus norvegicus [2]; [8],45.5 u/L
same,ALKALINE PHOSPHATASE,Rattus norvegicus [2]; [8],343.83 u/L
same,ASPARTATE AMINOTRANSFERASE,Rattus norvegicus [2]; [8],70.67 u/L
same,BLOOD UREA NITROGEN,Rattus norvegicus [2]; [8],13 mg/dL
same,CARBON DIOXIDE,Rattus norvegicus [2]; [8],33 mmol/L
same,CHLORIDE,Rattus norvegicus [2]; [8],100.33 MEQ/L
same,CHOLESTEROL,Rattus norvegicus [2]; [8],76.67 mg/dL
same,CREATININE,Rattus norvegicus [2]; [8],0.12 mg/dL
same,LACTATE DEHYDROGENASE,Rattus norvegicus [2]; [8],116.67 u/L
same,LIPASE,Rattus norvegicus [2]; [8],8 u/L
same,POTASSIUM,Rattus norvegicus [2]; [8],6.33 MEQ/L
same,TOTAL BILIRUBIN,Rattus norvegicus [2]; [8],0.18 mg/dL
same,TOTAL PROTEIN,Rattus norvegicus [2]; [8],5.77 G/DL
same,ABSOLUTE EOSINOPHIL,Rattus norvegicus [2]; [9],210.67 CELLS/uL
same,ABSOLUTE LYMPHOCYTE,Rattus norvegicus [2]; [9],10744.33 CELLS/uL
same,ABSOLUTE MONOCYTE,Rattus norvegicus [2]; [9],466.33 CELLS/uL
same,ABSOLUTE SEGMENTED NEUTROPHIL,Rattus norvegicus [2]; [9],1512 CELLS/uL
same,BASOPHIL,Rattus norvegicus [2]; [9],0%
same,ERYTHROCYTE COUNT,Rattus norvegicus [2]; [9],5.65 x10E6/uL
same,HEMATOCRIT,Rattus norvegicus [2]; [9],34.1%
same,HEMOGLOBIN,Rattus norvegicus [2]; [9],12.63 G/DL
same,LEUKOCYTE COUNT,Rattus norvegicus [2]; [9],12.93 x10E3/uL
same,LYMPHOCYTE,Rattus norvegicus [2]; [9],84.67%
same,MEAN CORPUSCULAR HEMOGLOBIN,Rattus norvegicus [2]; [9],22.43 pg
same,MEAN CORPUSCULAR HEMOGLOBIN CONCENTRATION,Rattus norvegicus [2]; [9],37.1 G/DL
same,MEAN CORPUSCULAR VOLUME,Rattus norvegicus [2]; [9],60.37 fL
same,MONOCYTE,Rattus norvegicus [2]; [9],3.33%
same,NEUTROPHIL,Rattus norvegicus [2]; [9],10.67%
same,NUCLEATED RED BLOOD CELLS,Rattus norvegicus [2]; [9],0 /100WBC
same,PLATELET COUNT,Rattus norvegicus [2]; [9],1117 x10E3/uL
same,ALANINE AMINOTRANSFERASE,Rattus norvegicus [2]; [10],52.67 u/L
same,ALBUMIN,Rattus norvegicus [2]; [10],4.3 G/DL
same,ALKALINE PHOSPHATASE,Rattus norvegicus [2]; [10],366 u/L
same,ASPARTATE AMINOTRANSFERASE,Rattus norvegicus [2]; [10],77.67 u/L
same,BLOOD UREA NITROGEN,Rattus norvegicus [2]; [10],13 mg/dL
same,CARBON DIOXIDE,Rattus norvegicus [2]; [10],26 mmol/L
same,CHOLESTEROL,Rattus norvegicus [2]; [10],82.67 mg/dL
same,CREATININE,Rattus norvegicus [2]; [10],0.16 mg/dL
same,LACTATE DEHYDROGENASE,Rattus norvegicus [2]; [10],175 u/L
same,LIPASE,Rattus norvegicus [2]; [10],8 u/L
same,PHOSPHORUS,Rattus norvegicus [2]; [10],12.07 mg/dL
same,POTASSIUM,Rattus norvegicus [2]; [10],6.17 MEQ/L
same,TOTAL BILIRUBIN,Rattus norvegicus [2]; [10],0.17 mg/dL
same,TOTAL PROTEIN,Rattus norvegicus [2]; [10],6.23 G/DL
same,URIC ACID,Rattus norvegicus [2]; [10],1.7 mg/dL
